Data on three molecules can be found in patent publication US5885592A, “Methods and pharmaceutical compositions for oral delivery of molecular iodine” (priority 1997, dated 1999).

For data set [1], the system named is mammary tissue. Description: Histologic grading of mammary tissue in iodine deficient rats, 4 weeks (Example 12). The class given is in vivo, Female Sprague-Dawley rats. The settings on record: for Fibroadenomata / Lobular hyperplasia / Periductal fibrosis / Secretion: 4 weeks. As to the method: Rats were dosed with molecular iodine once daily. Food was removed from the rats each morning and ten hours later, each rat was dosed with one of three concentrations 0.0010, 0.010 or 0.10 mg/kg of molecular iodine. A dose of iodide (100 ug/kg) was given to a control group of rats. The negative control consisted of rats which were dosed with tap water. At the end of 4 weeks rats were sacrificed and microscopic sections of the mammary gland tissues were stained with hematoxylin and eosin prior to being read by a pathologist.
Six groups of animals were examined: groups 1-3 received daily doses of one of three concentrations of molecular iodine; (4) received the normal diet without perchlorate treatment; (5) received the iodine deficient diet with a water gavage; and (6) received an iodine deficient diet and were dosed with iodide (100 ug/kg). […] The results of this histological grading are shown below in tabular form.

Data set [2] can be described thus: Body weight of iodine deficient rats, 2 week study (Example 8). As to conditions: in g (unit assumed).
The subject of data set [3] is thyroid. Description: Thyroid weight of rats after subchronic oral administration (Sherer et al., cited). It is filed as in vivo, male rats. The settings on record: compared with molecular iodine. As to the method: The only scientific studies on the relative oral toxicity of molecular iodine and iodide was performed during the early 1990s (Karla Thrall, Ph.D. Thesis, "Formation of Organic By-Products Following Consumption of Iodine Disinfected Drinking Water", Summary and Conclusion Section, Oregon State University, Department of Chemistry, 1992). The weight of a mammals thyroid is one key diagnostic measure used to evaluate the toxicity of an iodine composition. […] Another way to state this is that it required ten time more molecular iodine than iodide to effect animal thyroid function with an orally administered iodine composition.

In data set [4] the test system is mammary tissue. Description: Histologic grading of mammary tissue in iodine deficient rats, 2 week study (Example 8). The class given is in vivo, Female Sprague-Dawley rats. The protocol:
Perchlorate-treated (400 mg/dL NaClO4) municipal tap water was provided ad libitum for the first five days of captivity. […] Each day for the five days preceding the initiation of testing, animals received estrogen (25 ug of 17-βestradiol) suspended in 100 ul of sesame oil injected IM. During the 2 week experiment estrogen (2.5 ug 17-βestradiol) suspended in 100 ul of sesame oil was injected daily. Vaginal smears were taken every other day to insure that rats achieved constant estrus throughout the experiment.
Rats were dosed with molecular iodine once daily. Food was removed from the rats each morning and ten hours later, each rat was dosed with 80 ug/kg of molecular iodine. An equivalent dose of iodide (80 ug/kg) was given to a control group of rats. The negative control consisted of rats which were dosed with tap water. Rats were weighed daily. At the end of the 2 week study rats were sacrificed and microscopic sections of the mammary gland tissues were stained with hematoxylin and eosin prior to being read by a pathologist.
Each group contained 10 animals.
The mammary tissue was graded for lobular hyperplasia, secretions, periductal fibrosis, and fibroadenomatous changes. The scoring system for lobular hyperplasia, secretions, periductal fibrosis graded as positive only those animals showing moderate to severe conditions. […] The results of this histological grading are shown below in tabular form.

In another data set the test system is human. The settings on record: human oral consumption; cited from earlier work.
The test system of data set [5] is thyroid. The settings on record: male rats, cited from earlier work.
For the next data set, the system named is dysplastic mastodynia. The settings on record: women with dysplastic mastodynia; cited from earlier work.
For data set [6] the following is noted: function of pH; cited from earlier work.
The subject of a further data set is mammary glands. As to conditions: compared with iodide; cited from earlier work.
In another data set the test system is thyroid hormones. As to conditions: repeated daily doses; no increase below; cited from earlier work.

`I` [iodide]: in the data set on mammary tissue [1] (100 ug/kg daily), the Fibroadenomata is recorded as 3/10, the Lobular hyperplasia is on record as 4/10, the Periductal fibrosis is 5/10 and the Secretion is 5/10. The “formation of fibroadenomata (in words)” value in the data set with mammary tissue [1] (iodide 100 ug/kg daily) was “did not substantially alleviate the formation of fibroadenomata”. Besides, in data set [2] (80 ug/kg daily, end of 2 weeks), the “average body weight at end” value is 235±7.1. Further, the “average body weight at start” value in [2] (80 ug/kg, start) amounted to 214±6.5. Besides, the “concentration affecting thyroid weight relative to molecular iodine (fold less)” value in the data set on thyroid [3] stood at 10 fold. In the data set with mammary tissue [4] (80 ug/kg daily gavage, 2 weeks), the Fibroadenomata is given as 4/10; the “secretion and fibroadenomata (result in words)” value is “displayed increased secretion and fibroadenomata”. Besides, in the data set with mammary tissue [4] (po, 0.08 mg/kg, 336 h), the Lobular hyperplasia is reported as 4/10, the Periductal fibrosis was 6/10 and the Secretion is given as 4/10. Further, the “range of human consumption above which there is a health risk” value in the data set on human is listed as 0.150 to 1.0 mg/day. In the data set on thyroid [5] (subchronic oral administration), the “increased thyroid weight, dose” value is recorded as 10 mg/kg.

On to `II` [iodine], for which, in the data set on dysplastic mastodynia, the improvement rate is listed as 71%.

On to `II` [molecular iodine], for which, in [6], the stability in water result is “unstable in water”. Besides, the “diminishing ductal hyperplasia and perilobular fibrosis in the mammary glands” value in the data set with mammary glands is “distinctly more effective in diminishing ductal hyperplasia and perilobular fibrosis in the mammary glands than iodide”. Moreover, in the data set on mammary tissue [1] (1 ug/kg daily), the “formation of fibroadenomata and periductal fibrosis (in words)” value was “did not substantially alleviate the formation of fibroadenomata and periductal fibrosis”; the Fibroadenomata is on record as 4/10; the Lobular hyperplasia is listed as 4.10; the Periductal fibrosis is 6/10. For the same molecule, the Secretion in the data set on mammary tissue [1] (1 ug/kg daily) is reported as 6/10. Further, in the data set on mammary tissue [1] (10 ug/kg daily), the Fibroadenomata is 1/10, the Lobular hyperplasia was 2/10, the Periductal fibrosis is reported as 4/10 and the Secretion is on record as 4/10. In addition, in the data set on mammary tissue [1] (100 ug/kg daily), the Fibroadenomata is listed as 1/10, the Lobular hyperplasia is 2/10, the Periductal fibrosis is 2/10 and the Secretion is 3/10. Also, the “formation of fibroadenomata and periductal fibrosis (in words)” value with mammary tissue [1] (10 and 100 ug/kg daily) was “substantially reduced the formation of fibroadenomata and periductal fibrosis”. For the same molecule, in the data set on thyroid hormones, the “dose at which an increase in steady state levels of thyroid hormones was measured” value is given as 10 mg per kilogram of body weight. The “did not effect thyroid weight even at concentrations of” value in the data set with thyroid [5] (no effect up to this dose, oral) is given as 100 mg/kg.
